Laboratory results from PubChem BioAssay (NCI).
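Method: 48-hour compound exposure of cells in 96-well plates, five concentrations, linear interpolation of endpoints. TGI: concentration producing complete growth inhibition.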

What was measured:
Assay in all cases: NCI anticancer screen, dose series, 48 h
786-0 renal = system: 786-0 renal
A498 renal = system: A498 renal
A549 NSCLC = system: A549 NSCLC
ACHN renal = system: ACHN renal
BT-549 breast = system: BT-549 breast
CAKI-1 renal = system: CAKI-1 renal
CCRF-CEM leukemia = system: CCRF-CEM leukemia
COLO 205 colon = system: COLO 205 colon
DU-145 prostate = system: DU-145 prostate
EKVX NSCLC = system: EKVX NSCLC
HCT-116 colon = system: HCT-116 colon
HCT-15 colon = system: HCT-15 colon
HL-60(TB) leukemia = system: HL-60(TB) leukemia
HOP-62 NSCLC = system: HOP-62 NSCLC
HOP-92 NSCLC = system: HOP-92 NSCLC
HS 578T breast = system: HS 578T breast
HT29 colon = system: HT29 colon
IGROV1 ovarian = system: IGROV1 ovarian
K-562 leukemia = system: K-562 leukemia
KM12 colon = system: KM12 colon
LOX IMVI melanoma = system: LOX IMVI melanoma
M14 melanoma = system: M14 melanoma
MALME-3M melanoma = system: MALME-3M melanoma
MCF7 breast = system: MCF7 breast
MDA-MB-231 breast = system: MDA-MB-231 breast
MDA-MB-435 = system: MDA-MB-435
MDA-N = system: MDA-N
MOLT-4 leukemia = system: MOLT-4 leukemia
NCI-H226 lung = system: NCI-H226 lung
NCI-H23 lung = system: NCI-H23 lung
NCI-H460 lung = system: NCI-H460 lung
NCI-H522 lung = system: NCI-H522 lung
NCI/ADR-RES ovarian = system: NCI/ADR-RES ovarian
OVCAR-3 ovarian = system: OVCAR-3 ovarian
OVCAR-4 ovarian = system: OVCAR-4 ovarian
OVCAR-5 ovarian = system: OVCAR-5 ovarian
OVCAR-8 ovarian = system: OVCAR-8 ovarian
PC-3 prostate = system: PC-3 prostate
RPMI-8226 leukemia = system: RPMI-8226 leukemia
SF-268 CNS = system: SF-268 CNS
SF-295 CNS = system: SF-295 CNS
SF-539 CNS = system: SF-539 CNS
SK-MEL-28 melanoma = system: SK-MEL-28 melanoma
SK-MEL-5 melanoma = system: SK-MEL-5 melanoma
SK-OV-3 ovarian = system: SK-OV-3 ovarian
SN12C renal = system: SN12C renal
SNB-19 CNS = system: SNB-19 CNS
SNB-75 CNS = system: SNB-75 CNS
SR leukemia = system: SR leukemia
SW-620 colon = system: SW-620 colon
T-47D breast = system: T-47D breast
TK-10 renal = system: TK-10 renal
U251 CNS = system: U251 CNS
UACC-257 melanoma = system: UACC-257 melanoma
UACC-62 melanoma = system: UACC-62 melanoma
UO-31 renal = system: UO-31 renal
HCC-2998 colon = system: HCC-2998 colon
RXF 393 renal = system: RXF 393 renal
SK-MEL-2 melanoma = system: SK-MEL-2 melanoma

Q: What does the source list for `C/C(=N\NC(=S)N/N=C(\C)c1ccccn1)c1ccccn1`?
A: TGI (786-0 renal): > 100 µM; TGI (A498 renal): 82.6 µM; TGI (A549 NSCLC): > 100 µM; TGI (ACHN renal): 5.7 µM; TGI (BT-549 breast): > 100 µM; TGI (CAKI-1 renal): 5.24 µM; TGI (CCRF-CEM leukemia): 1.7 µM; TGI (COLO 205 colon): > 100 µM; TGI (DU-145 prostate): > 100 µM; TGI (EKVX NSCLC): 84.3 µM; TGI (HCT-116 colon): > 100 µM; TGI (HCT-15 colon): > 100 µM; TGI (HL-60(TB) leukemia): > 100 µM; TGI (HOP-62 NSCLC): 5.28 µM; TGI (HOP-92 NSCLC): > 100 µM; TGI (HS 578T breast): > 100 µM; TGI (HT29 colon): > 100 µM; TGI (IGROV1 ovarian): > 100 µM; TGI (K-562 leukemia): 7.92 µM; TGI (KM12 colon): > 100 µM; TGI (LOX IMVI melanoma): > 100 µM; TGI (M14 melanoma): 4.88 µM; TGI (MALME-3M melanoma): > 100 µM; TGI (MCF7 breast): > 100 µM; TGI (MDA-MB-231 breast): > 100 µM; TGI (MDA-MB-435): > 100 µM; TGI (MDA-N): > 100 µM; TGI (MOLT-4 leukemia): 5.9 µM; TGI (NCI-H226 lung): 3.78 µM; TGI (NCI-H23 lung): > 100 µM; TGI (NCI-H460 lung): 6.46 µM; TGI (NCI-H522 lung): > 100 µM; TGI (NCI/ADR-RES ovarian): 27 µM; TGI (OVCAR-3 ovarian): > 100 µM; TGI (OVCAR-4 ovarian): > 100 µM; TGI (OVCAR-5 ovarian): > 100 µM; TGI (OVCAR-8 ovarian): > 100 µM; TGI (PC-3 prostate): > 100 µM; TGI (RPMI-8226 leukemia): > 100 µM; TGI (SF-268 CNS): 16.3 µM; TGI (SF-295 CNS): > 100 µM; TGI (SF-539 CNS): 8.83 µM; TGI (SK-MEL-28 melanoma): > 100 µM; TGI (SK-MEL-5 melanoma): > 100 µM; TGI (SK-OV-3 ovarian): > 100 µM; TGI (SN12C renal): > 100 µM; TGI (SNB-19 CNS): > 100 µM; TGI (SNB-75 CNS): > 100 µM; TGI (SR leukemia): > 100 µM; TGI (SW-620 colon): > 100 µM; TGI (T-47D breast): > 100 µM; TGI (TK-10 renal): > 100 µM; TGI (U251 CNS): > 100 µM; TGI (UACC-257 melanoma): > 100 µM; TGI (UACC-62 melanoma): 15 µM; TGI (UO-31 renal): 5.31 µM

Q: Which TGI (786-0 renal) does the source give for `O=C(NC12CC3CC(CC(C3)C1)C2)n1cnc2cncnc21` here?
A: > 100 µM

Q: And the TGI (A498 renal)?
A: > 100 µM

Q: And the TGI (A549 NSCLC)?
A: > 100 µM

Q: What about the TGI (ACHN renal) of the same compound?
A: > 100 µM

Q: And the TGI (BT-549 breast)?
A: > 100 µM

Q: What about the TGI (CAKI-1 renal) of the same compound?
A: > 100 µM

Q: And the TGI (CCRF-CEM leukemia)?
A: > 100 µM

Q: And the TGI (COLO 205 colon)?
A: 37.4 µM

Q: What about the TGI (DU-145 prostate) of the same compound?
A: > 100 µM

Q: What about the TGI (EKVX NSCLC) of the same compound?
A: > 100 µM

Q: And the TGI (HCC-2998 colon)?
A: > 100 µM

Q: And the TGI (HCT-116 colon)?
A: > 100 µM

Q: And the TGI (HCT-15 colon)?
A: > 100 µM

Q: What about the TGI (HL-60(TB) leukemia) of the same compound?
A: > 100 µM

Q: What about the TGI (HOP-62 NSCLC) of the same compound?
A: 51.5 µM

Q: What about the TGI (HOP-92 NSCLC) of the same compound?
A: > 100 µM

Q: What about the TGI (HS 578T breast) of the same compound?
A: > 100 µM

Q: And the TGI (HT29 colon)?
A: > 100 µM

Q: What about the TGI (IGROV1 ovarian) of the same compound?
A: 98 µM

Q: What about the TGI (K-562 leukemia) of the same compound?
A: > 100 µM

Q: What about the TGI (KM12 colon) of the same compound?
A: > 100 µM

Q: What about the TGI (LOX IMVI melanoma) of the same compound?
A: 92 µM

Q: What about the TGI (M14 melanoma) of the same compound?
A: > 100 µM

Q: And the TGI (MALME-3M melanoma)?
A: 78.6 µM

Q: What about the TGI (MCF7 breast) of the same compound?
A: > 100 µM

Q: What about the TGI (MDA-MB-231 breast) of the same compound?
A: > 100 µM

Q: And the TGI (MDA-MB-435)?
A: > 100 µM

Q: What about the TGI (MDA-N) of the same compound?
A: > 100 µM

Q: What about the TGI (MOLT-4 leukemia) of the same compound?
A: > 100 µM

Q: And the TGI (NCI-H23 lung)?
A: > 100 µM

Q: What about the TGI (NCI-H460 lung) of the same compound?
A: > 100 µM

Q: What about the TGI (NCI-H522 lung) of the same compound?
A: 53.8 µM

Q: And the TGI (NCI/ADR-RES ovarian)?
A: > 100 µM

Q: And the TGI (OVCAR-3 ovarian)?
A: 47 µM

Q: What about the TGI (OVCAR-5 ovarian) of the same compound?
A: > 100 µM

Q: What about the TGI (OVCAR-8 ovarian) of the same compound?
A: > 100 µM

Q: And the TGI (PC-3 prostate)?
A: 98.7 µM

Q: And the TGI (RPMI-8226 leukemia)?
A: 79.4 µM

Q: What about the TGI (RXF 393 renal) of the same compound?
A: > 100 µM

Q: And the TGI (SF-268 CNS)?
A: > 100 µM

Q: What about the TGI (SF-295 CNS) of the same compound?
A: 67.6 µM

Q: And the TGI (SF-539 CNS)?
A: 54.5 µM

Q: And the TGI (SK-MEL-2 melanoma)?
A: 58.4 µM

Q: What about the TGI (SK-MEL-28 melanoma) of the same compound?
A: > 100 µM

Q: And the TGI (SK-MEL-5 melanoma)?
A: 30.6 µM

Q: What about the TGI (SK-OV-3 ovarian) of the same compound?
A: 47.1 µM

Q: And the TGI (SN12C renal)?
A: > 100 µM

Q: What about the TGI (SNB-19 CNS) of the same compound?
A: > 100 µM

Q: And the TGI (SNB-75 CNS)?
A: > 100 µM

Q: What about the TGI (SR leukemia) of the same compound?
A: 62.4 µM

Q: And the TGI (SW-620 colon)?
A: > 100 µM

Q: And the TGI (T-47D breast)?
A: > 100 µM

Q: What about the TGI (TK-10 renal) of the same compound?
A: > 100 µM

Q: And the TGI (U251 CNS)?
A: > 100 µM

Q: And the TGI (UACC-257 melanoma)?
A: > 100 µM

Q: And the TGI (UACC-62 melanoma)?
A: > 100 µM

Q: What about the TGI (UO-31 renal) of the same compound?
A: > 100 µM
